From patent publication US20260061065A1, “ANTIBODY DRUG CONJUGATES” (priority 2022, published 2026)

Legend:
Format in all cases: cell-based
[1] = test system: OCUM-1 stomach/gastric cancer cells; assay: CellTiter-Glo proliferation assay, OCUM1
Method: (§1) OCUM-1: Stomach/gastric cancer—JCRB No. JCRB0192 cultured in DMEM+0.5 mM sodium pyruvate+10% FBS EBC-1: Lung cancer—JCRB No. JCRB0820 cultured in DMEM+10% FBS SKCO-1: Colon cancer—ATCC No. HTB-39 cultured in Eagle's Minimum Essential Medium+10% FBS The Her2 antibody drug conjugates were tested against nine endogenous cancer cell lines. NCI-N87: Stomach/gastric cancer—ATCC No. CRL-5822 cultured in RPMI-1640+10% FBS The PCAD antibody drug conjugates were tested against nine endogenous cancer cell lines. BICR-22: Tongue cancer—ECACC No. 04072106 cultured in DMEM+2 mM Glutamine+2% FBS+0.4 micrograms/ml Hydrocortisone
(§2) The ability of the antibody drug conjugates to inhibit cell proliferation and survival was assessed using the Promega CellTiter-Glo® proliferation assay.
(§3) Cell lines were cultured in media that is optimal for their growth at 5% CO2, 37° C. in a tissue culture incubator. […] On the day of seeding, cell viability and cell density were determined using a cell counter (Vi-Cell XR Cell Viability Analyzer, Beckman Coulter). […] Plates were incubated at 5% CO2, 37° C. for 5 days in a tissue culture incubator, after which cell viability was assessed through the addition of 25 μL of CellTiter Glo® (Promega, cat #G7573), a reagent which lyses cells and measures total adenosine triphosphate (ATP) content. […]

[2] = test system: SKCO-1 colon cancer cells; assay: CellTiter-Glo proliferation assay, SKCO1
Method: as §1, §2, §3

EBC-1 lung cancer cells = assay: CellTiter-Glo proliferation assay, EBC1
Method: as §1, §2, §3

[3] = test system: BICR-22 tongue cancer cells; assay: CellTiter-Glo proliferation assay, BICR22
Method: as §1, §2, §3

[4] = test system: NCI-N87 stomach/gastric cancer cells; assay: CellTiter-Glo proliferation assay, NCIN87
Method: as §1, §2, §3

CCC(C)[C@@H]([C@@H](CC(=O)N1CCC[C@H]1[C@H](OC)[C@@H](C)C(=O)N[C@@H](Cc1ccccc1)c1nccs1)OC)N(C)C(=O)[C@@H](NC(=O)[C@H]1N[C@@H]2CC[C@H]1C2)C(C)C (stereo partly shown) [Auristatin#1]
IC50 ([1]; OCUM1, 120 h): 1.38 nM | Amax (Span) ([1]; Unconjugated drug cytotoxicity, OCUM1, 5 days): 72.3 | IC50 ([2]; Homo sapiens, SK-CO-1, 120 h): 1.13 nM | Amax (Span) ([2]; Unconjugated drug cytotoxicity, SKCO1, 5 days): 81.6 | IC50 (EBC-1 lung cancer cells; Homo sapiens, EBC-1, 120 h): 0.23 nM | Amax (Span) (EBC-1 lung cancer cells; Unconjugated drug cytotoxicity, EBC1, 5 days): 77.0 | IC50 ([3]; 120 h): 0.271 nM | Amax (Span) ([3]; Unconjugated drug cytotoxicity, BICR22, 5 days): 89.7 | IC50 ([4]; Homo sapiens, NCI-N87, 120 h): 1.2 nM | Amax (Span) ([4]; Unconjugated drug cytotoxicity, NCIN87, 5 days): 75.7
